Results on 58 molecules are retold here after patent US20260284051A1, “METHIONINE ADENOSYLTRANSFERASE 2A (MAT2A) INHIBITOR COMBINATIONS AND USES THEREOF” (INSILICO MEDICINE IP LIMITED, priority 2023, published 2026).

Sequence of MAT2A (P31153 whole entry, species assumed): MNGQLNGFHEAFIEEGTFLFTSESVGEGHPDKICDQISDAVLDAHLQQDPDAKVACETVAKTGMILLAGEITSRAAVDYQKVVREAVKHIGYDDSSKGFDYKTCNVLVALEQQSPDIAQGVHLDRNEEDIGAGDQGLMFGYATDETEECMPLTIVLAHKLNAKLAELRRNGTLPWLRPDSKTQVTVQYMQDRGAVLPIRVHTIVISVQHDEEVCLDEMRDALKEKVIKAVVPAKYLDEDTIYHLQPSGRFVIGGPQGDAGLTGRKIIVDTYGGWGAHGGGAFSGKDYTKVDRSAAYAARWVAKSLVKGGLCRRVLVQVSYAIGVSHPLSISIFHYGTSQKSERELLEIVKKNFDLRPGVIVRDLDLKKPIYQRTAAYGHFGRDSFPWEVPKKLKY

The assay has as its target MAT2A (Homo sapiens, UniProt P31153). The experiment in a line: MAT2A Biochemical Assay. Conditions: read-out: MAT2A enzymatic IC50. Here is the method:
Example A: MAT2A Biochemical Assay
Compounds described herein were tested as follows:
• (1). Prepared 1×Assay buffer. • (2). Preparation of compound concentration gradient: the compounds test condition were […], 3-fold dilution, 10 doses, singlet or duplicate. 100x concentration compounds were prepared in 384-well plate. Then used Echo 550 to transfer 250 nl to a 384-reaction plate for later use. Added 250 nl of 100% DMSO to the negative and positive control wells. • (3). Prepared 1.67× final concentration enzyme solution with 1×Assay buffer. • (4). Added 15 μl of 1.67× Enzyme solution to the compound wells and positive control wells; added 15 μl of 1×Assay buffer to the negative control wells. • (5). Centrifuged at 1000 rpm for 30 seconds and incubate for 15 minutes. • (6). Prepared 2.5× final concentration Substrate mix solution with 1×Assay buffer. • (7). Added 10 μl of 2.5× final concentration Substrate mix solution to start the reaction. • (8). Centrifuged at 1000 rpm for 30 seconds and incubate for 150 minutes. • (9). Added […] Biomol Green to stop the reaction, centrifuge at 1000 rpm for 30 seconds and incubate for 15 minutes. read O.D.620, process data.
• (1) Using GraphPad Prism 5.
[formula] • (3) Max signal was obtained from the positive control wells. • (4) Min signal was obtained from the negative control wells.
Usually IC50 stands for the concentration that gives 50% inhibition. For the molecule `C#CCNc1nc(=O)n(-c2cccnc2)c2cc(Cl)ccc12` [Example 1], the IC50 is less than 50 nM. Consider `O=c1nc(NCC#CC2CC2)c2ccc(Cl)cc2n1-c1cccnc1` [Example 2], for which the 50% inhibitory concentration (IC50) was less than 50 nM. Then `C#CC1(Nc2nc(=O)n(-c3cccnc3)c3cc(Cl)ccc23)CC1` [Example 4], with less than 50 nM. Then `C#CCCCNc1nc(=O)n(-c2cccnc2)c2cc(C(F)(F)F)ccc12` [Example 6], with less than 50 nM. As to `C#CCNc1nc(=O)n(-c2cccnc2)c2cc(C(F)(F)F)ccc12` [Example 7], the IC50 is less than 50 nM. Then `C#CCCNc1nc(=O)n(-c2ccccc2Cl)c2cc(Cl)ccc12` [Example 8], with less than 50 nM; and `C#CCNc1nc(=O)n(-c2ccccc2Cl)c2cc(Cl)ccc12` [Example 10], with less than 50 nM. Then `C#CC1CCN(c2nc(=O)n(-c3ccccc3Cl)c3cc(Cl)ccc23)CC1` [Example 13], with greater than 1000 nM; and `O=c1nc(NCC#CCN2CCOCC2)c2ccc(C(F)(F)F)cc2n1-c1cccnc1` [Example 14], with less than 50 nM; and `C#CCNc1nc(=O)n(-c2cccnc2C)c2cc(Cl)ccc12` [Example 15], with less than 50 nM. Then `C#CC1(Nc2nc(=O)n(-c3cccnc3C)c3cc(Cl)ccc23)CC1` [Example 16], with less than 50 nM; and `C#CCNc1nc(=O)n(-c2cnccn2)c2cc(Cl)ccc12` [Example 17], with less than 50 nM; and `C#CCNc1nc(=O)n(-c2cccnc2)c2cc(Br)ccc12` [Example 18], with less than 50 nM. On to `C#CCNc1nc(=O)n(-c2cccnc2C)c2cc(Br)cc(OC)c12` [Example 19], for which the IC50 is less than 50 nM. Under `C#CCNc1nc(=O)n(-c2cccnc2)c2cc(Cl)cc(OC)c12` [Example 20] stands less than 50 nM; under `C#CCNc1nc(=O)n(-c2cnccn2)c2cc(Cl)cc(OC)c12` [Example 21], less than 50 nM; under `C#CCNc1nc(=O)n(-c2cccnc2C)c2cc(Cl)cc(OC)c12` [Example 22], less than 50 nM.

Consider `C#CCNc1nc(=O)n(-c2nccnc2C)c2cc(Cl)cc(OC)c12` [Example 23], for which the IC50 is less than 50 nM. Under `C#CC1(Nc2nc(=O)n(-c3cnccn3)c3cc(Cl)cc(OC)c23)CC1` [Example 24] stands less than 50 nM; under `C#CC1(Nc2nc(=O)n(-c3nccnc3C)c3cc(Cl)cc(OC)c23)CC1` [Example 25], less than 50 nM. Then `C#CC(C)Nc1nc(=O)n(-c2cccnc2C)c2cc(Cl)cc(OC)c12` (stereo not shown) [Example 26], with less than 50 nM; and `C#CC1(Nc2nc(=O)n(-c3cccnc3C)c3cc(Cl)cc(OC)c23)CC1` [Example 27], with less than 50 nM. `C#CC1(Nc2nc(=O)n(-c3cccnc3C)c3cc(Cl)cc(OC)c23)CCC1` [Example 28]: the IC50 is less than 50 nM.

In the case of `C#CCNc1nc(=O)n(-c2cccnc2)c2cc(Cl)cc(F)c12` [Example 29], the IC50 is less than 50 nM. Then `C#CCNc1nc(=O)n(-c2cccnc2C)c2cc(Cl)cc(F)c12` [Example 30], with less than 50 nM; and `C#CC1(Nc2nc(=O)n(-c3cccnc3C)c3cc(Cl)cc(F)c23)CC1` [Example 31], with less than 50 nM.

For the molecule `C#CCNc1nc(=O)n(-c2cccnc2C)c2cc(C(F)(F)F)ccc12` [Example 33], the IC50 is less than 50 nM.

`C#CCNc1nc(=O)n(-c2cccnc2)c2cc(C(F)(F)F)cc(OC)c12` [Example 34]: the IC50 was less than 50 nM.

As for `C#CC(C)Nc1nc(=O)n(-c2cccnc2)c2cc(C(F)(F)F)cc(OC)c12` (stereo not shown) [Example 35], the IC50 is less than 50 nM. Turning to `C#CC(C)Nc1nc(=O)n(-c2cccnc2C)c2cc(C(F)(F)F)cc(OC)c12` (stereo not shown) [Example 37], the IC50 is less than 50 nM. Then `C#CCNc1nc(=O)n(-c2cccnc2)c2cc(C(F)(F)F)cc(OCF)c12` [Example 38], with less than 50 nM. Then `C#CCNc1nc(=O)n(-c2cccnc2C)c2cc(C(F)(F)F)cc(OC(F)F)c12` [Example 40], with less than 50 nM. Then `C#CCNc1nc(=O)n(-c2cccnc2C)c2nc(C(F)(F)F)cc(OC)c12` [Example 42], with less than 50 nM.

Turning to `C#CCNc1nc(=O)n(-c2cccnc2C(C)C)c2cc(C(F)(F)F)ccc12` [Example 45], the IC50 is less than 50 nM.

For the molecule `C#CC1(Nc2nc(=O)n(-c3cccnc3C)c3cc(C(F)(F)F)ccc23)CC1` [Example 46], the IC50 is less than 50 nM.

In the case of `C#CC1(Nc2nc(=O)n(-c3cccnc3)c3cc(C(F)(F)F)cc(OC)c23)CC1` [Example 47], the IC50 was less than 50 nM. Then `C#CCNc1nc(=O)n(-c2nccnc2C)c2cc(C(F)(F)F)cc(OC)c12` [Example 48], with less than 50 nM. Under `C#CC1(Nc2nc(=O)n(-c3cccnc3C)c3cc(C(F)(F)F)cc(OC)c23)CC1` [Example 49] stands less than 50 nM; under `C#CC1(Nc2nc(=O)n(-c3cccnc3C)c3cc(C(F)(F)F)cc(OC)c23)CCC1` [Example 50], less than 50 nM; under `C#CCN(C)c1nc(=O)n(-c2cccnc2)c2cc(C(F)(F)F)ccc12` [Example 51], less than 50 nM. Then `C#CCNc1nc(=O)n(-c2c(C)ccnc2C)c2cc(C(F)(F)F)ccc12` [Example 52], with less than 50 nM; and `C#CCNc1nc(=O)n(-c2cnccn2)c2cc(C(F)(F)F)ccc12` [Example 53], with less than 50 nM. Turning to `C#CCNc1nc(=O)n(-c2cnccn2)c2cc(C(F)(F)F)cc(OC)c12` [Example 54], the IC50 is less than 50 nM. For `C#CC1(Nc2nc(=O)n(-c3cccnc3)c3cc(C(F)(F)F)cnc23)CC1` [Example 56], the IC50 is greater than 1000 nM. Under `C#CCNc1nc(=O)n(-c2cccnc2)c2nc(C(F)(F)F)ccc12` [Example 57] stands less than 50 nM; under `C#CCNc1nc(=O)n(-c2cccnc2)c2nc(C(F)(F)F)ncc12` [Example 61], less than 50 nM. Under `C#CCNc1nc(=O)n(-c2cccnn2)c2nc(C(F)(F)F)ccc12` [Example 63] stands less than 50 nM; under `C#CC(C)Nc1nc(=O)n(-c2cccnc2)c2cc(C(F)(F)F)ccc12` (stereo not shown) [Example 64], less than 50 nM; under `C#CC1(Nc2nc(=O)n(-c3cccnc3)c3cc(Cl)cc(OC)c23)CC1` [Example 66], less than 50 nM. Under `C#CC1(Nc2nc(=O)n(-c3cccnc3)c3cc(C(F)(F)F)ccc23)CC1` [Example 67] stands less than 50 nM; under `C#CC1(Nc2nc(=O)n(-c3cccnc3)c3nc(C(F)(F)F)ccc23)CC1` [Example 68], less than 50 nM. In the case of `C#CC1(Nc2nc(=O)n(-c3cnccn3)c3cc(C(F)(F)F)ccc23)CC1` [Example 69], the IC50 was less than 50 nM. Under `C#CC1(Nc2nc(=O)n(-c3cccnn3)c3nc(C(F)(F)F)ccc23)CC1` [Example 70] stands less than 50 nM; under `C=CCNc1nc(=O)n(-c2cccnc2)c2cc(Cl)cc(OC)c12` [Example 73], less than 50 nM; under `C=CCNc1nc(=O)n(-c2cccnc2C)c2cc(Cl)cc(OC)c12` [Example 74], less than 50 nM.

With `C=CC1(Nc2nc(=O)n(-c3cccnc3C)c3cc(Cl)cc(OC)c23)CC1` [Example 75], the IC50 was less than 50 nM. With `C=CCNc1nc(=O)n(-c2cccnc2)c2cc(C(F)(F)F)ccc12` [Example 76], the concentration for half-maximal inhibition (IC50) is less than 50 nM. With `C=CCNc1nc(=O)n(-c2cccnc2C)c2cc(C(F)(F)F)cc(OC)c12` [Example 77], the IC50 is less than 50 nM.
